The data set can be described thus: Pharmacokinetic study in mice, single oral dose. To be noted: for Cmax: read-out: maximum serum concentration (Cmax). It is filed as in vivo, balb/c mice. The method, then:
In an initial assessment of the drug-like properties of Oxy186, we performed a pharmacokinetic (PK) study in mice. Oxy186, formulated in 4% ethanol, 15% DMSO, and 81% corn oil, was administered to balb/c mice by oral gavage as a single dose of 50 mg/kg.
Figure 8 Drug-like properties of Oxy186. (a) A single dose of Oxy186 at 50 mg/kg, formulated in 4% ethanol/ 15% DMSO/ 81% corn oil, was administered to balb/c mice by oral gavage. Plasma samples were taken at 10 min, 30 min, 1, 2, 4, 6, 8, and 24 h, followed by LC/MS analysis of the plasma. (b) Evolution of Oxy186 from parent compound Oxy16 and their drug-like properties.

Where [1] appears, read: mouse, plasma, balb/c mice, 50 mg/kg, oral gavage, single dose.

Structures are written as SMILES. “Also recorded” adds a separate entry of the source. Like-named read-outs stand apart in the source and are kept apart here.

`C[C@]12CC[C@H](O)C[C@@H]1CC[C@@H]1[C@@H]2CC[C@@]2(C)[C@H]1CC[C@@H]2[C@](C)(O)CCc1ccc(F)cc1` [Oxy186, (3S,5S,8R,9S,10S,13S,14S,17S)-17-((R)-4-(4-fluorophenyl)-2-hydroxybutan-2-yl)-10,13-dimethylhexadecahydro-1H-cyclopenta[a]phenanthren-3-ol]: the “In vivo availability / stability (Figure 8b summary)” value (Figure 8b drug-like properties summary) was “Orally available in mice”. The Tolerability entry (balb/c mice, 50 mg/kg, oral gavage, single dose) is given as “well tolerated; also recorded: no overt signs of toxicity”. Under setting [1], the Tmax (as a rule, the time from dosing to the highest level) was determined as 2 h. Besides, the AUC (usually the area under the concentration-time curve, a measure of exposure) (mouse, plasma, balb/c mice, 50 mg/kg, oral gavage, single dose, read-out: area under the curve (AUC)) worked out at 10500 ng·h/mL and the AUC (mouse, plasma, balb/c mice, 50 mg/kg, oral gavage, converted from ng/mL, read-out: area under the curve (AUC), molar) was 23.7 µM·h. For the same compound, the Cmax amounted to 1490 ng/mL under setting [1] and 3.4 µM (mouse, plasma, balb/c mice, 50 mg/kg, oral gavage, converted with MW = 442.32). Where the note is “mouse, plasma, balb/c mice, 50 mg/kg, oral gavage, single dose, read-out: oral half-life (T1/2) (converted)”, the half-life is 4.5 h.

The values are drawn from publication PMC6562610, “Inhibition of Hedgehog Signaling in Fibroblasts, Pancreatic, and Lung Tumor Cells by Oxy186, an Oxysterol Analogue with Drug-Like Properties” (Cells, 2019).
